Results published in US7691572B2, “Method and kit for detecting resistance to antiviral drugs” (priority 1998, dated 2010).
Where two headings read alike, the source gives them in different places.

Key:
Type in all cases: biochemical
HIV-1 RT [1] = conditions: for inhibition of RT activity / RT activity inhibition / Phenotype / % inhibition: 1 μM AZT-TP
Text: Four groups of archived HIV-1 specimens with known genotypes were selected for assay validation. These included WT, MNR, MNR carrying unrelated resistance mutations, and non-MNR specimens carrying classical AZT resistance mutations (Schmit et al., “Multiple drug resistance to nucleoside analogues and nonnucleoside reverse transcriptase inhibitors in an efficiently replicating human immunodeficiency virus type 1 patient strain,” J. Infect. Dis. 174: 962-968 (1996); Winters et al., “A 6-base pair insert in the reverse transcriptase gene of human immunodeficiency virus type 1 confers resistance to multiple nucleoside inhibitors,” J. Clin. Invest. 102: 1769-1775 (1998); Adje et al., “High prevalence of genotypic and phenotypic HIV-1 drug-resistant strains among patients receiving antiretroviral therapy in Abidjan, Cote d'Ivoire,” J. Acquired Immune Deficiency Syndromes 26: 501-506 (2001); Weinstock et al., “Prevalence of mutations associated with reduced antiretroviral drug susceptibility among human immunodeficiency virus type 1 seroconverters in the United States, 1993-1998,” J. Infect. Dis. 182: 330-333 (2000)). Forty-four samples were selected which comprised 7 viral stocks and 37 plasma samples obtained from 34 HIV-1-infected persons.

HIV-1 RT [2] = experiment: Amp-RT assay, AZT-TP and other NRTI-TPs, reference viruses; conditions: for % inhibition (SEM) / inhibition of RT activity / inhibition of activity: 1 μM AZT-TP; for inhibition of RT activity: ~1.882×10^−7 to ~1.882×10^−5 units of RT activity per ml
HIV-1 RT [3] = target: HIV-1 RT (Human immunodeficiency virus type 1 group M subtype B, UniProt P04585); experiment: as above; set-up: The susceptibility of HIV-1 RT activity from viral isolates or plasma samples; made in house
[4] = specimen no. 40 (T215Y and T69S-EA insertions)
[5] = MNR HIV-1SUM12 (F77L, F116Y, Q151M)
[6] = MNR HIV-1SUM13 (A62V, V75I, F77L, F116Y, Q151M)
[7] = classical AZT-resistant HIV-1 R598 (D67N, V106A, L210W, L214F, T215Y)
[8] = classical AZT-resistant HIV-1RTMC/MT2 (D67N, K70R, T215F, K219Q)

Structure (SMILES): Cc1cn([C@H]2C[C@H](N=[N+]=[N-])[C@@H](COP(=O)(O)OP(=O)(O)OP(=O)(O)O)O2)c(=O)[nH]c1=O [AZT-TP, AZT-triphosphate]
- inhibition of RT activity (HIV-1 RT [1]; 9 specimens containing classical AZT-resistant mutations): 87%
- RT activity inhibition (HIV-1 RT [1]; 23 specimens with MNR genotypes): 0-62%
- RT activity inhibition (HIV-1 RT [1]; HIV-1 RTs that had more MNR-related mutations): 0-16%
- inhibition of RT activity (HIV-1 RT [1]; all 12 specimens with WT genotype): 93%
- Phenotype (HIV-1 RT [1]; specimen 12): S
- % inhibition (HIV-1 RT [1]; specimen 12, WT): 100%
- Phenotype (HIV-1 RT [1]; specimen 13): R
- % inhibition (HIV-1 RT [1]; specimen 13, S68G, Q151M): 40%
- Phenotype (HIV-1 RT [1]; specimen 14): R
- % inhibition (HIV-1 RT [1]; specimen 14, A62A/V, S68G, V75I, F77L, F116Y, Q151M): 6%
- Phenotype (HIV-1 RT [1]; specimen 15): R
- % inhibition (HIV-1 RT [1]; specimen 15, S68G, V75I, F77L, K103N, F116Y, Q151M, M184V): 0%
- Phenotype (HIV-1 RT [1]; specimen 16): R
- % inhibition (HIV-1 RT [1]; specimen 16, Q151Q/M): 38%
- % inhibition (HIV-1 RT [1]; specimen 17, Q151M): 23%
- % inhibition (HIV-1 RT [1]; specimen 18, Q151M): 57%
- Phenotype (HIV-1 RT [1]; specimen 26): R
- % inhibition (HIV-1 RT [1]; specimen 26, A62V, V75T, Q151M, M184I/M): 11%
- % inhibition (HIV-1 RT [1]; specimen 27, V75I, F77L, F116Y, Q151M): 0%
- % inhibition (HIV-1 RT [1]; specimen 28, V75I, F77L, F116Y, Q151M): 8%
- Phenotype (HIV-1 RT [1]; specimen 29): R
- % inhibition (HIV-1 RT [1]; specimen 29, A62V, V75I, F77L, F116Y, Q151M, M184V): 0%
- Phenotype (HIV-1 RT [1]; specimen 30): R
- % inhibition (HIV-1 RT [1]; specimen 30, K65R, K70R, V75I, F77L, F116Y, Q151M): 13%
- Phenotype (HIV-1 RT [1]; specimen 31): R
- % inhibition (HIV-1 RT [1]; specimen 31, D67N, Q151M, M184V): 17%
- Phenotype (HIV-1 RT [1]; specimen 32): R
- % inhibition (HIV-1 RT [1]; specimen 32, V75I, F77L, F116Y, Q151M, M184V): 26%
- Phenotype (HIV-1 RT [1]; specimen 35): R
- % inhibition (HIV-1 RT [1]; specimen 35, F116Y, Q151M, T215Y, V35I, I135T): 62%
- Phenotype (HIV-1 RT [1]; specimen 36): S
- % inhibition (HIV-1 RT [1]; specimen 36, D67N, L210W, L214F, T215Y): 95.6%
- Phenotype (HIV-1 RT [1]; specimen 37): S
- % inhibition (HIV-1 RT [1]; specimen 37, A62V, K70R, L74V, K103N, T215F): 92.6%
- Phenotype (HIV-1 RT [1]; specimen 38): S
- Phenotype (HIV-1 RT [1]; specimen 39): S
- % inhibition (HIV-1 RT [1]; specimen 39, M41L, M184V, L214F, T215Y): 89.1%
- Phenotype (HIV-1 RT [1]; specimen 44): S
- Phenotype (HIV-1 RT [1]; specimens 1-11, WT): S
- % inhibition (HIV-1 RT [1]; specimens 1-11, recent seroconverters, WT): 93-100%
- Phenotype (HIV-1 RT [1]; specimens 17, 18): R
- Phenotype (HIV-1 RT [1]; specimens 19-21): R
- % inhibition (HIV-1 RT [1]; specimens 19-21, A62V, V75I, F77L, F116Y, Q151M): 4-16%
- Phenotype (HIV-1 RT [1]; specimens 22-25): R
- % inhibition (HIV-1 RT [1]; specimens 22-25, A62V, S68G, V75I, F77L, F116Y, Q151M): 0%
- Phenotype (HIV-1 RT [1]; specimens 27-28): R
- Phenotype (HIV-1 RT [1]; specimens 33, 34): R
- Phenotype (HIV-1 RT [1]; specimens 40-43): S
- % inhibition (HIV-1 RT [1]; specimens 40-43, T215Y, T69S-insertions EA/SS/SG): 87-97%
- IC50 compared to reference WT HIV-1 isolates (HIV-1 RT [1]; plasma specimen no. 25 (A62V, S68G, V75I, F77L, F116Y, Q151M)): 44 fold
- IC50 (HIV-1 RT [1]; [4]): 400 nM
- IC90 (HIV-1 RT [1]; [4]): 1000 nM
- % inhibition (SEM) (HIV-1 RT [2]; HIV-1LAI, WT): 99.9 (±0.02) %
- % inhibition (SEM) (HIV-1 RT [2]; HIV-1M184Vpitt, M184V): 91.1 (±3.3) %
- % inhibition (SEM) (HIV-1 RT [2]; HIV-1R598, D67N, V106A, L210W, L214F, T215Y): 97.8 (±2.2) %
- % inhibition (SEM) (HIV-1 RT [2]; HIV-1RTMC/MT-2, D67N, K70R, T215F, K219Q): 91.5 (±8.5) %
- % inhibition (SEM) (HIV-1 RT [2]; HIV-1RTMDRI/MT-2, M41L, L74V, V106A, T215Y): 94.6 (±5.4) %
- % inhibition (SEM) (HIV-1 RT [2]; HIV-1RTMF/MT-2, T215Y): 96 (±4) %
- % inhibition (SEM) (HIV-1 RT [2]; HIV-1SUM8, Q151M): 26.6 (±6.1) %
- inhibition of RT activity (HIV-1 RT [2]; HIV-1SUM8): 50%
- % inhibition (SEM) (HIV-1 RT [2]; HIV-1SUM9, WT): 95.8 (±1.4) %
- % inhibition (SEM) (HIV-1 RT [2]; HIV-1SUM12, F77L, F116V, Q151M): 13.1 (±5.5) %
- inhibition of RT activity (HIV-1 RT [2]; HIV-1SUM12 and HIV-1SUM13): < 15%
- % inhibition (SEM) (HIV-1 RT [2]; HIV-1SUM13, A62V, V75I, F77L, F116Y, Q151M): 12.9 (±2.8) %
- % inhibition (SEM) (HIV-1 RT [2]; HIV-1xxBRUpitt, WT): 93.5 (±6.5) %
- inhibition of RT activity (HIV-1 RT [2]; WT HIV-1SUM9): > 85%
- inhibition of activity (HIV-1 RT [2]; WT RT (HIV-1SUM9) alone): 91%
- inhibition of activity (HIV-1 RT [2]; mixture containing 10% MNR HIV-1SUM13 in WT HIV-1SUM9): 17%
- inhibition of activity (HIV-1 RT [2]; mixture containing 30% or more of MNR HIV-1): No inhibition
- reduction of the level of DNA products (HIV-1 RT [2]; 1 μM AZT-triphosphate, MNR strains): ≤ 30%
- reduction of the amount of DNA products (HIV-1 RT [2]; 1 μM AZT-triphosphate, wild-type and classical reverse transcriptase mutant strains): ≥ 90%
- IC50 (HIV-1 RT [2]; MNR HIV-1SUM8 (Q151M)): 2500 nM
- IC90 (HIV-1 RT [2]; MNR HIV-1SUM8 (Q151M)): 4500 nM
- fold resistance (IC90) as compared to the mean IC values of WT HIV-1 (HIV-1 RT [2]; MNR HIV-1SUM8 (Q151M)): (4.7) fold
- IC50 (HIV-1 RT [2]; [5]): 11000 nM
- IC90 (HIV-1 RT [2]; [5]): 18000 nM
- fold resistance (IC90) as compared to the mean IC values of WT HIV-1 (HIV-1 RT [2]; [5]): (18.6) fold
- IC50 (HIV-1 RT [2]; [6]): 18000 nM
- IC90 (HIV-1 RT [2]; [6]): 45000 nM
- fold resistance (IC90) as compared to the mean IC values of WT HIV-1 (HIV-1 RT [2]; [6]): (46.6) fold
- IC50 (HIV-1 RT [2]; WT HIV-1LAI): 500 nM
- IC90 (HIV-1 RT [2]; WT HIV-1LAI): 900 nM
- IC50 (HIV-1 RT [2]; WT HIV-1SUM9): 500 nM
- IC90 (HIV-1 RT [2]; WT HIV-1SUM9): 1000 nM
- IC50 (HIV-1 RT [2]; [7]): 500 nM
- IC90 (HIV-1 RT [2]; [7]): 1000 nM
- IC50 (HIV-1 RT [2]; [8]): 500 nM
- IC90 (HIV-1 RT [2]; [8]): 1000 nM
- % inhibition (SEM) (HIV-1 RT [3]; 1 μM AZT-TP, HIV-1HXB2, WT): 98 (±2) %
- IC50 (HIV-1 RT [3]; WT HIV-1HXB2): 500 nM
- IC90 (HIV-1 RT [3]; WT HIV-1HXB2): 900 nM
